Data reported in US20180296530A1, “METHOD FOR TREATING ATOPIC DERMATITIS” (priority 2015, published 2018).

How the values were obtained:
[1] = tested on: serum total IgE; experiment: Example 6: serum IgE in DNCB-induced AD mouse model; format: in vivo, Balb/c mice
Description: (§1) Blood and dorsal skin of each mouse were collected on the last day of the experiment (Day 20) and stored at −80° C. until use. Serum IgE levels were measured using the ImmunoCAP fluorescence enzyme immunoassay (Phadia AB, Sweden) according to the manufacturer's instructions. The dorsal skin mRNA expression of the cytokines IL-4, IL-13, and IL-17 were measured by RT-PCR.
(§2) The protocol for establishing an AD mouse model in this Example was modified from those described previously. Briefly, referring to FIG. 12, DNCB-induced AD mouse model was prepared by the repeated applications of 20 μL of 1% DNCB in acetone/olive oil (4:1) to the outer and inner surfaces of mouse ears and 100 μL of the same solution to the shaved back skin once on days 1 and 4. Mice of Control group were treated with the identical volumes of vehicle.
The DNCB-sensitized mice were randomly assigned to one of four groups: DNCB, DNCB+0.1% topical melatonin, DNCB+1% topical melatonin, DNCB+8% topical melatonin. Each group (including Control group) consisted of 3 mice. On days 8 and 11, sensitized mice was challenged by applying 0.2% DNCB to the skin surfaces. For the three groups treated with topical melatonin groups, 0.1 mg of topical melatonin cream was given twice a day from day 1 to day 14. […]
The serum IgE levels were measured on the last day of the experiment (Day 15) in the same manner as those described in Example 5.

[2] = tested on: serum total IgE; experiment: Example 5: serum IgE in DNCB-induced AD mouse model; format: in vivo, Balb/c mice; conditions: 5% melatonin treatment compared with the DNCB-stimulated group, p=0.02, Day 20
Description: as §2, with “FIG. 4,” for “FIG. 12,”, “days 1, 2,” for “days 1”, “and 3.” for “and 4.”
The DNCB-sensitized mice were randomly assigned to one of three groups: DNCB (Positive control), DNCB+3% topical melatonin (Treatment: low-dose), DNCB+5% topical melatonin (Treatment: high-dose). Each group (including Control group) consisted of 5 mice. From days 9 to 19, sensitized mice were challenged by applying 0.5% DNCB to the skin surfaces. For the two groups treated with topical melatonin groups, 0.3 mg of topical melatonin ointment (3% or 5% melatonin in Vaseline) was given together with DNCB during the challenge period. […]
as §1

[3] = tested on: serum total IgE and allergen-specific IgE; experiment: Clinical trial: serum total and allergen-specific IgE (ImmunoCAP); format: in vivo, human
[4] = tested on: Patients aged 1 to 18 years with physician-diagnosed AD and sleep problems; experiment: Clinical trial: sleep evaluated by actigraphy; format: in vivo, human
Description: Patients aged 1 to 18 years with physician-diagnosed AD involving at least 5% of the total body surface area were recruited from the pediatric and dermatology outpatient departments of the National Taiwan University Hospital from Aug. 1, 2012, through Jan. 31, 2013. Follow-up was completed on Apr. 13, 2013. Those patients with sleep problems occurring more than 3 days per week during the previous 3 months were eligible. […] They were then randomized to receive oral melatonin, 3 mg/d (General Nutrition Corporation), or placebo (Standard Chem & Pharm Co, Ltd) at bedtime for 4 weeks. After a 2-week washout period, participants crossed to the alternate treatment. Sleep was evaluated by actigraphy (Mini-Mitter Actiwatch; Philips-Respironics). Each participant wore the actigraphic device on the nondominant wrist for 3 consecutive nights starting 3 nights before each treatment period and for the last 3 nights of each treatment period. In a subgroup of patients who offered consent, polysomnography was performed on the night before the first day and on the last night of each treatment period.

[5] = after vs before oral melatonin 3 mg/d, 4 weeks, mean
[6] = melatonin vs placebo, adjusted for age and sex
[7] = after oral melatonin 3 mg/d at bedtime for 4 weeks, mean, actigraphy
[8] = melatonin phase, before treatment, mean, actigraphy

## COc1ccc2[nH]cc(CCNC(C)=O)c2c1 [Melatonin, melatonin]
[1]; 8% topical melatonin treatment, FIG. 15
  serum total IgE levels: lowered the total serum IgE most
[1]; after topical melatonin treatment (0.1%, 1%, 8%), dose-response relationship, FIG. 15, Day 15
  serum total IgE levels: reduced
[2]
  serum total IgE level: significantly reduced
[3]; after oral melatonin 3 mg/d at bedtime for 4 weeks, mean, serum
  IgE level, After: 2483.8 kU/L
[3]; [5]
  IgE level, Difference: 108.4 kU/L
[3]; melatonin phase, before treatment, mean, serum
  IgE level, Before: 2337.2 kU/L
[3]; melatonin vs placebo, P>0.05
  effect on allergen-specific IgE levels to Derp, Derf, or S aureus enterotoxins A or B: no significant difference
  effect on total IgE level: no significant difference
[3]; [6]
  IgE level, Difference of Treatment Effect From the Linear Mixed-Effects Model, Mean: −113.6 kU/L
[4]; FIG. 2D, almost unchanged in placebo treatment
  sleep-onset latency, Wilcoxon signed rank test: decreased the sleep-onset latency significantly
[4]; after melatonin treatment, 17 of 37 (placebo 13 of 38 [34%])
  patients who believed that their sleep had improved: 46%
[4]; after oral melatonin 3 mg/d at bedtime for 4 weeks, mean
  Fragmentation index, After: 13.6
[4]; [7]
  Mobility in sleep, After: 9.7%
  Sleep efficiency, After: 76.7%
  Sleep-onset latency, After: 21.6 min
  Total sleep time, After: 390.1 min/night
  WASO (wake after sleep onset), After: 74.5 min
  Wake in sleep interval, After: 15.6%
[4]; [5]
  Fragmentation index, Difference: −2.4
  Mobility in sleep, Difference: −2.0%
  Sleep efficiency, Difference: 2.4%
  Sleep-onset latency, Difference: -23.4 min
  Total sleep time, Difference: 10.0 min/night
  WASO (wake after sleep onset), Difference: -9.0 min
  Wake in sleep interval, Difference: −2.1%
[4]; between the melatonin and placebo phases
  effect on the other sleep variables measured by actigraphy: did not differ significantly
[4]; linear mixed-effects model, adjusted for age and sex
  decrease of the sleep-onset latency more than placebo: 21.4 min
[4]; melatonin group, first treatment period, after oral 3 mg/d for 4 weeks, actigraphy
  sleep-onset latency, first treatment period, after: 24.4 min
[4]; melatonin group, first treatment period, before treatment, actigraphy
  sleep-onset latency, first treatment period, before: 42.8 min
[4]; melatonin group, second treatment period, after oral 3 mg/d for 4 weeks, actigraphy
  sleep-onset latency, second treatment period, after: 19.1 min
[4]; melatonin group, second treatment period, before treatment, actigraphy
  sleep-onset latency, second treatment period, before: 46.7 min
[4]; [8]
  Mobility in sleep, Before: 11.6%
  Sleep efficiency, Before: 74.4%
  Sleep-onset latency, Before: 44.9 min
  Total sleep time, Before: 380.1 min/night
  WASO (wake after sleep onset), Before: 83.6 min
  Wake in sleep interval, Before: 17.6%
[4]; melatonin phase, before treatment, mean, greater scores indicate more fragmented sleep
  Fragmentation index, Before: 16.0
[4]; melatonin treatment compared to placebo, FIG. 3
  effect on sleep efficiency, wake time during sleep, or sleep fragmentation: no significant effect
[4]; [6]
  Fragmentation index, Difference of Treatment Effect From the Linear Mixed-Effects Model, Mean: −3.2
  Mobility in sleep, Difference of Treatment Effect From the Linear Mixed-Effects Model, Mean: −2.9%
  Sleep efficiency, Difference of Treatment Effect From the Linear Mixed-Effects Model, Mean: 2.2%
  Sleep-onset latency, Difference of Treatment Effect From the Linear Mixed-Effects Model, Mean: -21.4 min
  Total sleep time, Difference of Treatment Effect From the Linear Mixed-Effects Model, Mean: 24.8 min/night
  WASO, Difference of Treatment Effect From the Linear Mixed-Effects Model, Mean: -8.2 min
  Wake in sleep interval, Difference of Treatment Effect From the Linear Mixed-Effects Model, Mean: −2.3%
[4]; oral melatonin treatment
  shortening of sleep-onset latency, mean: 23.4 min
  shortening of sleep-onset latency, mean percent: 52.1%
